# According to BindingDB's records for doi:10.1021/bi0200514 (Merck Research Laboratories, 2002):
# “And” between values parts separate entries of the source, which are not always exact repeats. Identical values can stand only once. Positions of bridges follow the written chain, without caps; N, C: chain ends. Non-standard residues stand in square brackets, D forms with d. Residues, ends and D or L forms follow the SMILES beside them. *: point of attachment. Pentanoyl(5-guanidino) = NC(N)=NCCCCC(=O)*; Abu = CC[C@H](N)C(=O)O; Aoc = NCCCCCCCC(=O)O; Ava = NCCCCC(=O)O
# Experiments:
# [1] = target: Melanin-concentrating hormone receptor 2 (Homo sapiens, UniProt Q969V1)
# [2] = target: Melanin-concentrating hormone receptor 1 (Homo sapiens, UniProt Q99705)
# Sequence of Melanin-concentrating hormone receptor 1 (Q99705 as listed by the source): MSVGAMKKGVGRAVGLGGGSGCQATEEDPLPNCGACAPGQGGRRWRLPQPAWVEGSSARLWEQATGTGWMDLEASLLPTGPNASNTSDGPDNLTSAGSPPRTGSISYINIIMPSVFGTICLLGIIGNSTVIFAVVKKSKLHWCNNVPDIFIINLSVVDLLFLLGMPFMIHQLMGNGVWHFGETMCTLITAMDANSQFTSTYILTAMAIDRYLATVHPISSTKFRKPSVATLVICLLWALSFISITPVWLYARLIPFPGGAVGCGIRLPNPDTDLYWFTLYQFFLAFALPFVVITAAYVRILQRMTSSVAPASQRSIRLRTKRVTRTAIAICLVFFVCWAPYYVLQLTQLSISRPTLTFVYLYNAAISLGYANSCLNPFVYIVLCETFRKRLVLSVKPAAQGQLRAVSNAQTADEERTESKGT
# Sequence of Melanin-concentrating hormone receptor 2 (Q969V1 whole entry): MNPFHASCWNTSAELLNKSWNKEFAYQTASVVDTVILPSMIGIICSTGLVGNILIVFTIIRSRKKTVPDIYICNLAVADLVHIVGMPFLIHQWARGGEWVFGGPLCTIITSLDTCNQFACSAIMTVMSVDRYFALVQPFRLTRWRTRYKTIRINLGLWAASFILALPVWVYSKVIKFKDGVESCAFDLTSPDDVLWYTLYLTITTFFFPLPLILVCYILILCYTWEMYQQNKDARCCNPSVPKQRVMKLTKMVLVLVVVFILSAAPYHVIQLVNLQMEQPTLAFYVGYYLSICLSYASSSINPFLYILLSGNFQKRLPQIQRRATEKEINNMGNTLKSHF
Ki [1],Ki [2],SMILES
20 nM,1350 nM,"CSCC[C@@H]1NC(=O)[C@@H](NC(=O)CCCCN=C(N)N)CSSC[C@@H](C(N)=O)NC(=O)CCCCNC(=O)[C@H](Cc2ccc(O)cc2)NC(=O)[C@H](C(C)C)NC(=O)[C@H](CCCN=C(N)N)NC(=O)CNC1=O [Gva6,desLeu9,Ava14,15] ({Pentanoyl(5-guanidino)}-CMGRVY[Ava]C-NH2; disulfide 1-8)"
50 nM,1.8 nM,"CSCC[C@@H]1NC(=O)[C@@H](NC(=O)[C@H](CCCN=C(N)N)NC(C)=O)CSSC[C@@H](C(N)=O)NC(=O)CCCCNC(=O)[C@H](Cc2ccc(O)cc2)NC(=O)[C@H](C(C)C)NC(=O)[C@H](CCCN=C(N)N)NC(=O)CNC(=O)[C@H](CC(C)C)NC1=O [Ava14,15]"
48 nM,24 nM,"CSCC[C@@H]1NC(=O)[C@@H](NC(=O)CCCCN=C(N)N)CSSC[C@@H](C(N)=O)NC(=O)CCCNC(=O)[C@H](Cc2ccc(O)cc2)NC(=O)[C@H](C(C)C)NC(=O)[C@H](CCCN=C(N)N)NC(=O)CNC(=O)[C@H](CC(C)C)NC1=O [Gva6,gammaAbu14,15]"
77 nM and 48 nM,300 nM and 190 nM,"CSCC[C@@H]1NC(=O)[C@@H](N)CSSC[C@@H](C(N)=O)NC(=O)CCCCNC(=O)[C@H](Cc2ccc(O)cc2)NC(=O)[C@H](C(C)C)NC(=O)[C@H](CCCN=C(N)N)NC(=O)CNC(=O)[C@H](CC(C)C)NC1=O [des(Ac-Arg6),Ava14,15]"
45 nM,69 nM,"CSCC[C@@H]1NC(=O)[C@@H](NC(=O)[C@@H](CCCN=C(N)N)NC(C)=O)CSSC[C@@H](C(N)=O)NC(=O)CCCCNC(=O)[C@H](Cc2ccc(O)cc2)NC(=O)[C@H](C(C)C)NC(=O)[C@H](CCCN=C(N)N)NC(=O)CCCCNC1=O [D-Arg6,Ava9,10,Ava14,15]"
65 nM,11.3 nM,"CSCC[C@@H]1NC(=O)[C@@H](NC(=O)[C@@H](CCCN=C(N)N)NC(C)=O)CSSC[C@@H](C(N)=O)NC(=O)CCCCNC(=O)[C@H](Cc2ccc(O)cc2)NC(=O)[C@H](C(C)C)NC(=O)[C@H](CCCN=C(N)N)NC(=O)CNC(=O)[C@H](CC(C)C)NC1=O [D-Arg6,Ava14,15]"
25 nM,120 nM,"CSCC[C@@H]1NC(=O)[C@H](NC(=O)CCCCN=C(N)N)CSSC[C@@H](C(N)=O)NC(=O)CCCCNC(=O)[C@H](Cc2ccc(O)cc2)NC(=O)[C@H](C(C)C)NC(=O)[C@H](CCCN=C(N)N)NC(=O)CNC(=O)[C@H](CC(C)C)NC1=O [Gva6,D-Cys7,Ava14,15]"
2.7 nM,0.16 nM,CSCC[C@@H]1NC(=O)[C@@H](NC(=O)[C@H](CCCNC(=N)N)NC(C)=O)CSSC[C@@H](C(N)=O)NC(=O)[C@@H]2CCCN2C(=O)[C@H](CCCNC(=N)N)NC(=O)[C@H](Cc2ccc(O)cc2)NC(=O)[C@H](C(C)C)NC(=O)[C@H](CCCNC(=N)N)NC(=O)CNC(=O)[C@H](CC(C)C)NC1=O [hAc-MCH(6-16)-NH2]
45 nM,7.9 nM,"CSCC[C@@H]1NC(=O)[C@@H](NC(=O)CCCN=C(N)N)CSSC[C@@H](C(N)=O)NC(=O)CCCCNC(=O)[C@H](Cc2ccc(O)cc2)NC(=O)[C@H](C(C)C)NC(=O)[C@H](CCCN=C(N)N)NC(=O)CNC(=O)[C@H](CC(C)C)NC1=O [Gbu6,Ava14,15]"
63 nM,4800 nM,"CC(=O)N[C@@H](CCCN=C(N)N)C(=O)N[C@H]1CSSC[C@@H](C(N)=O)NC(=O)[C@@H]2CCCN2C(=O)[C@H](CCCN=C(N)N)NC(=O)[C@H](Cc2ccc(O)cc2)NC(=O)[C@H](C(C)C)NC(=O)[C@H](CCCN=C(N)N)NC(=O)CCCCCCCNC1=O [Aoct8,9,10] (Ac-RC[Aoc]RVYRPC-NH2; disulfide 2-9)"
3100 nM,10 nM,"CSCC[C@@H]1NC(=O)[C@@H](NC(=O)CCCCN=C(N)N)CSSC[C@@H](C(N)=O)NC(=O)[C@H]2CC[C@H](CC2)NC(=O)[C@H](Cc2ccc(O)cc2)NC(=O)[C@H](C(C)C)NC(=O)[C@H](CCCN=C(N)N)NC(=O)CNC(=O)[C@H](CC(C)C)NC1=O [Gva6,cisAcx14,15]"
20 nM,340 nM,"CSCC[C@@H]1NC(=O)[C@H](NC(=O)[C@H](CCCN=C(N)N)NC(C)=O)CSSC[C@@H](C(N)=O)NC(=O)CCCCNC(=O)[C@H](Cc2ccc(O)cc2)NC(=O)[C@H](C(C)C)NC(=O)[C@H](CCCN=C(N)N)NC(=O)CNC(=O)[C@H](CC(C)C)NC1=O [D-Cys7,Ava14,15]"
38 nM,,"CC(=O)N[C@@H](CCCN=C(N)N)C(=O)N[C@H]1CSSC[C@@H](C(N)=O)NC(=O)CCCCNC(=O)[C@H](Cc2ccc(O)cc2)NC(=O)[C@H](C(C)C)NC(=O)[C@H](CCCN=C(N)N)NC(=O)CNC(=O)[C@H](CC(C)C)NC(=O)[C@H](C)NC1=O [Ala8,Ava14,15] (Ac-RCALGRVY[Ava]C-NH2; disulfide 2-10)"
35 nM,25 nM,"CSCC[C@@H]1NC(=O)[C@@H](NC(=O)CCCCN=C(N)N)CSSC[C@@H](C(N)=O)NC(=O)CCCCNC(=O)[C@H](Cc2ccc(O)cc2)NC(=O)[C@H](C)NC(=O)[C@H](CCCN=C(N)N)NC(=O)CNC(=O)[C@H](CC(C)C)NC1=O [Gva6,Ala12,Ava14,15] ({Pentanoyl(5-guanidino)}-CMLGRAY[Ava]C-NH2; disulfide 1-9)"
43 nM,43 nM,"CSCC[C@@H]1NC(=O)[C@@H](NC(=O)[C@H](CCN=C(N)N)NC(C)=O)CSSC[C@@H](C(N)=O)NC(=O)CCCCNC(=O)[C@H](Cc2ccc(O)cc2)NC(=O)[C@H](C(C)C)NC(=O)[C@H](CCCN=C(N)N)NC(=O)CNC(=O)[C@H](CC(C)C)NC1=O [Gpr6,Ava14,15]"
43 nM,320 nM,"CC[C@@H]1NC(=O)[C@@H](NC(=O)CCCCN=C(N)N)CSSC[C@@H](C(N)=O)NC(=O)CCCCNC(=O)[C@H](Cc2ccc(O)cc2)NC(=O)[C@H](C(C)C)NC(=O)[C@H](CCCN=C(N)N)NC(=O)CNC(=O)[C@H](CC(C)C)NC1=O [Gva6,alphaAbu8,Ava14,15] ({Pentanoyl(5-guanidino)}-C[Abu]LGRVY[Ava]C-NH2; disulfide 1-9)"
33 nM,83 nM,"CC(C)C[C@@H]1NC(=O)[C@H](C)NC(=O)[C@@H](NC(=O)CCCCN=C(N)N)CSSC[C@@H](C(N)=O)NC(=O)CCCCNC(=O)[C@H](Cc2ccc(O)cc2)NC(=O)[C@H](C(C)C)NC(=O)[C@H](CCCN=C(N)N)NC(=O)CNC1=O [Gva6,Ala8,Ava14,15] ({Pentanoyl(5-guanidino)}-CALGRVY[Ava]C-NH2; disulfide 1-9)"
70 nM,4.7 nM,"CCCC[C@@H]1NC(=O)[C@@H](NC(=O)CCCCN=C(N)N)CSSC[C@@H](C(N)=O)NC(=O)CCCCNC(=O)[C@H](Cc2ccc(O)cc2)NC(=O)[C@H](C(C)C)NC(=O)[C@H](CCCN=C(N)N)NC(=O)CNC(=O)[C@H](CC(C)C)NC1=O [Gva6,Nle8,Ava14,15]"
48 nM,5 nM,"CSCC[C@@H]1NC(=O)[C@@H](NC(=O)CCCCN=C(N)N)CSSC[C@@H](C(N)=O)NC(=O)[C@@H]2CCCN2C(=O)[C@H](CCCN=C(N)N)NC(=O)[C@H](Cc2ccc(O)cc2)NC(=O)[C@H](C(C)C)NC(=O)[C@H](CCCN=C(N)N)NC(=O)CCCCNC1=O [Gva6,Ava9,10]"
38 nM,66 nM,"CSCC[C@@H]1NC(=O)[C@@H](NC(=O)CCCCN=C(N)N)CSSC[C@@H](C(=O)O)NC(=O)CCCCNC(=O)[C@H](Cc2ccc(O)cc2)NC(=O)[C@H](C(C)C)NC(=O)[C@H](CCCN=C(N)N)NC(=O)CNC(=O)[C@H](CC(C)C)NC1=O [Gva6,Ava14,15, OH]"
40 nM,45 nM,"CSCC[C@@H]1NC(=O)[C@@H](NC(=O)CCCCN=C(N)N)CSSC[C@@H](C(N)=O)NC(=O)CCCCNC(=O)[C@H](Cc2ccc(O)cc2)NC(=O)[C@H](C(C)C)NC(=O)[C@H](CCCN=C(N)N)NC(=O)CCCCNC1=O [Gva6,Ava9,10,Ava14,15] ({Pentanoyl(5-guanidino)}-CM[Ava]RVY[Ava]C-NH2; disulfide 1-8)"

SMILES,Ki [1],Ki [2]
CSCC[C@@H]1NC(=O)[C@@H](NC(=O)[C@H](CCCNC(=N)N)NC(=O)[C@H](CC(C)C)NC(=O)[C@H](CCSC)NC(=O)[C@H](CC(=O)O)NC(=O)[C@H](Cc2ccccc2)NC(=O)[C@@H](N)CC(=O)O)CSSC[C@@H](C(=O)N[C@@H](Cc2c[nH]c3ccccc23)C(=O)N[C@@H](CCC(N)=O)C(=O)N[C@H](C(=O)O)C(C)C)NC(=O)[C@@H]2CCCN2C(=O)[C@H](CCCNC(=N)N)NC(=O)[C@H](Cc2ccc(O)cc2)NC(=O)[C@H](C(C)C)NC(=O)[C@H](CCCNC(=N)N)NC(=O)CNC(=O)[C@H](CC(C)C)NC1=O [hMCH],2.9 nM,
